Assay results: patent publication EP4748844A1, “AZETIDINE COMPOUND AND MEDICAL USE THEREOF” (SHANGHAI INSTITUTE OF MATERIA MEDICA, CHINESE ACADEMY OF …, priority 2023, dated 2025)

How the values were obtained:
[1] = test system: DMXAA induced ISG gene expression in mouse RAW-Lucia cells; assay: Inhibition of DMXAA-induced ISG gene expression in mouse RAW-Lucia cells (QUANTI-Luc); format: cell-based; conditions: STING agonist DMXAA 50 µM, incubated for 24 hours
Procedure: 10 µL of compound diluted with PBS/physiological saline was added to each well of a 96 well cell culture plate. The STING agonist was DMXAA, which was added to the counted cell suspension at a final concentration of 50 µM. For the control group without compounds, 10 µL of PBS/physiological saline containing 2% DMSO was added. 3 replicate wells were set in each group. RAW-Lucia cells were counted and adjusted to a cell concentration of 4×10^5/mL, and […] of cells were added to each well for incubation. Therefore, the final volume of each test well was 200 µL, the content of DMSO was 0.1%, and the final concentration of the compound tested was 10/3.3/1.1/0.4/0.13/0.04/0.013/0.004 µM. The final concentration of STING agonist DMXAA was 50 µM. The mixture was incubated for 24 hours. In addition, 200 µL of culture medium was added to the blank group. 3 replicate wells were set in each group.
(§1) After 24 hours, 20 µL of culture medium was taken from each well and transferred to a new 96 well plate with photopermeable bottom. 50 µL of the luciferase detection reagent QUANTI-Luc™ was added, and the […] was immediately measured (avoid light).
Result analysis: Inhibition rate (%) = (Con(Lum)−Treated(Lum))/Con(Lum) × 100% [formula]
(§2) The IC50 calculation of inhibitors was implemented using the Graphpad Prism 8 software's calculation method log (inhibitor) vs. response - Variable slope (four parameters), with a constrain interval of 0-100.

[2] = test system: ISG gene expression induced by MSA-2 in human THP1-Dual cells; assay: Inhibition of MSA-2-induced ISG gene expression in human THP1-Dual cells (QUANTI-Luc); format: cell-based; conditions: STING agonist MSA-2 10 µM, incubated for 24 hours
Procedure: 10 µL of compound diluted with PBS/physiological saline was added to each well of a 96 well cell culture plate. The STING agonist was MSA-2, which was added to the counted cell suspension at a final concentration of 10 µM. For the control group without compounds, 10 µL of PBS/physiological saline containing 2% DMSO was added. 3 replicate wells were set in each group. THP1-Dual cells were counted and adjusted to a cell concentration of 4×10^5/mL, and 190 µL of cells containing STING agonist were added to each well for incubation. Therefore, the final volume of each test well was 200 µL, the content of DMSO was 0.1%, and the final concentration of the compound tested was 10/3.3/1.1/0.4/0.13/0.04/0.013/0.004 µM, incubated for 24 hours. In addition, 190 µL of cells without STING agonist and 10 µL of physiological saline containing 2% DMSO were added to the blank group. 3 replicate wells were set in each group.
as §1, with “medium for THP1-Dual cells” for “medium”, “light). Result analysis:Inhibition rate (%) = (Con(Lum)−Treated(Lum))/Con(Lum) × 100% [formula]” for “light).”
as §2

Compound | IC50 [1] [nM] | IC50 [2] [nM]
CC1(C)C(=O)N(Cc2cccc3ccoc23)c2cc(C(=O)Nc3c[nH]c4ccc(F)cc34)ccc21 [Example I-126, 1-(benzofuran-7-ylmethyl)-N-(5-fluoro-1H-indol-3-yl)-3,3-dimethyl-2-oxoindolin-6-carboxamide] | 58.5 | 58.5
O=C(Nc1c[nH]c2ccc(F)cc12)c1cc2c(s1)SCC(=O)N2Cc1ccoc1 [Example I-122, N-(5-fluoro-1H-indol-3-yl)-1-(furan-3-ylmethyl)-2-oxo-2,3-dihydro-1H-thieno[2,3-b][1,4]thiazin-6-carboxamide] | 15.9 | 272
CC1(C)C(=C=O)N(CCc2ccccc2)c2cc(C(=O)Nc3c[nH]c4ccc(F)cc34)ccc21 [Example I-107, N-(5-fluoro-1H-indol-3-yl)-3,3-dimethyl-2-carbonyl-1-phenethylindolin-6-carboxamide] | 2.72 | 147
CC1(C)C(=O)N(Cc2cc(F)cc(C(F)(F)F)c2)c2cc(C(=O)Nc3c[nH]c4ccccc34)ccc21 [Example I-104] | 8.69 | 33.1
O=C(Nc1c[nH]c2ccccc12)c1cc2c(s1)SCC(=O)N2CC1CC1 [Example I-116, 1-(cyclopropylmethyl)-N-(1H-indol-3-yl)-2-oxo-2,3-dihydro-1H-thieno[2,3-b][1,4]thiazin-6-carboxamide] |  | 206
O=C(Nc1c[nH]c2cc(F)c(F)cc12)c1cc2c(s1)SCC(=O)N2Cc1cc(F)cc(C(F)(F)F)c1 [Example I-125, N-(5,6-difluoro-1H-indol-3-yl)-1-(3-fluoro-5-(trifluoromethyl)benzyl)-2-oxo-2,3-dihydro-1H-thieno[2,3-b][1,4]thiazin-6-carboxamide] | 5.26 | 76.6
CC1(C)C(=O)N(Cc2ccc3occc3c2)c2cc(C(=O)Nc3c[nH]c4ccccc34)ccc21 [Example I-93, 1-(benzofuran-5-ylmethyl)-N-(1H-indol-3-yl)-3,3-dimethyl-2-oxoindolin-6-carboxamide] |  | 74.8
O=C(Nc1c[nH]c2ccc(F)cc12)c1cc2c(s1)SCC(=O)N2Cc1ccco1 [Example I-121, N-(5-fluoro-1H-indol-3-yl)-1-(furan-2-ylmethyl)-2-oxo-2,3-dihydro-1H-thieno[2,3-b][1,4]thiazin-6-carboxamide] | 31.7 | 268
CC1(C)C(=O)N(Cc2ccc3c(c2)OCO3)c2cc(C(=O)Nc3c[nH]c4ccccc34)ccc21 [Example I-92, 1-(benzo[d][1,3]dihydroxyl-5-ylmethyl)-N-(1H-indol-3-yl)-3,3-dimethyl-2-oxoindol-6-carboxamide] | 94 | 28.8
O=C(Nc1c[nH]c2ccccc12)c1cc2c(s1)SCC(=O)N2CC1CCOCC1 [Example I-119, N-(1H-indol-3-yl)-2-oxo-1-((tetrahydro-2H-pyran-4-yl)methyl)-2,3-dihydro-1H-thieno[2,3-b][1,4]thiazin-6-carboxamide] | 45.5 | 
O=C(Nc1c[nH]c2ccc(F)cc12)c1cc2c(s1)SCC(=O)N2Cc1cc(F)cc(C(F)(F)F)c1 [Example I-124, N-(5-fluoro-1H-indol-3-yl)-1-(3-fluoro-5-(trifluoromethyl)benzyl)-2-oxo-2,3-dihydro-1H-thieno[2,3-b][1,4]thiazin-6-carboxamide] | < 3 | 48
CC1(C)C(=O)N(Cc2cc(F)cc(C(F)(F)F)c2)c2cc(C(=O)Nc3c[nH]c4ccc(F)cc34)ccc21 [Example I-110] | 14.3 | 36.8
O=C(Nc1c[nH]c2ccccc12)c1cc2c(s1)SCC(=O)N2Cc1cccs1 [Example I-114, N-(1H-indol-3-yl)-2-oxo-1-(thien-2-ylmethyl)-2,3-dihydro-1H-thieno[2,3-b][1,4]thiazin-6-carboxamide] |  | 164
CC1(C)C(=O)N(Cc2csc(C(F)(F)F)c2)c2cc(C(=O)Nc3c[nH]c4ccccc34)sc21 [Example I-90, N-(1H-indol-3-yl)-6,6-dimethyl-5-oxo-4-((5-(trifluoromethyl)thien-3-yl)methyl)-5,6-dihydro-4H-thieno[3,2-b]pyrrol-2-carboxamide] |  | 98
O=C(Nc1c[nH]c2ccccc12)c1cc2c(s1)SCC(=O)N2Cc1ccoc1 [Example I-117, 1-(furan-3-ylmethyl)-N-(1H-indol-3-yl)-2-oxo-2,3-dihydro-1H-thieno[2,3-b][1,4]thiazin-6-carboxamide] | 76.7 | 85
CC1(C)C(=O)N(Cc2cc(F)cc(C(F)(F)F)c2)c2cc(C(=O)Nc3c[nH]c4cc(F)c(F)cc34)ccc21 [Example I-111] | 29.1 | 123
CC1(C)C(=O)N(Cc2ccsc2)c2cc(C(=O)Nc3c[nH]c4ccccc34)sc21 [Example I-85, N-(1H-indol-3-yl)-6,6-dimethyl-5-oxo-4-(thien-3-ylmethyl)-5,6-dihydro-4H-thieno[3,2-b]pyrrol-2-carboxamide] | 19.4 | 16.5
O=C(Nc1c[nH]c2ccccc12)c1cc2c(s1)SCC(=O)N2Cc1cc(F)cc(C(F)(F)F)c1 [Example I-115, 1-(3-fluoro-5-(trifluoromethyl)benzyl)-N-(1H-indol-3-yl)-2-oxo-2,3-dihydro-1H-thieno[2,3-b][1,4]thiazin-6-carboxamide] | 7.51 | 12.2
O=C(Nc1c[nH]c2ccccc12)c1cc2c(s1)SCC(=O)N2Cc1ccsc1 [Example I-112, N-(1H-indol-3-yl)-2-oxo-1-(thien-3-ylmethyl)-2,3-dihydro-1H-thieno[2,3-b][1,4]thiazin-6-carboxamide] | 41.9 | 46.5
CC1(C)C(=O)N(Cc2ccccc2-c2ccccc2)c2cc(C(=O)Nc3c[nH]c4ccccc34)ccc21 [Example I-95, 1-([1,1'-biphenyl]-2-ylmethyl)-N-(1H-indol-3-yl)-3,3-dimethyl-2-oxoindolin-6-carboxamide] |  | 228
1-((4-chlorothien-3-yl)methyl)-N-(1H-indol-3-yl)-3,3-dimethyl-2-oxoindolin-6-carboxamide [Example I-89] |  | 119
CC1(C)C(=O)N(Cc2ccoc2)c2cc(C(=O)Nc3c[nH]c4ccccc34)sc21 [Example I-86, 4-(furan-3-ylmethyl)-N-(1H-indol-3-yl)-6,6-dimethyl-5-oxo-5,6-dihydro-4H-thieno[3,2-b]pyrrol-2-carboxamide] |  | 221
CC1(C)C(=O)N(CC2CN(c3cc(F)cc(C(F)(F)F)c3)C2)c2cc(C(=O)Nc3c[nH]c4ccc(F)cc34)ccc21 [Example I-28] | 62 | 
CC1(C)C(=O)N(Cc2coc(Cl)c2)c2cc(C(=O)Nc3c[nH]c4ccccc34)sc21 [Example I-91, 4-((5-chlorofuran-3-yl)methyl)-N-(1H-indol-3-yl)-6,6-dimethyl-5-oxo-5,6-dihydro-4H-thieno[3,2-b]pyrrol-2-carboxamide] |  | 117
CC1(C)C(=O)N(Cc2cc(F)cc(C(F)(F)F)c2)c2cc(C(=O)Nc3c[nH]c4ccccc34)sc21 [Example I-88, 4-(3-fluoro-5-(trifluoromethyl)benzyl)-N-(1H-indol-3-yl)-6,6-dimethyl-5-oxo-5,6-dihydro-4H-thieno[3,2-b]pyrrol-2-carboxamide] |  | 143
CC1(C)C(=O)N(Cc2ccc3[nH]ccc3c2)c2cc(C(=O)Nc3c[nH]c4ccccc34)ccc21 [Example I-94, 1-(indol-5-ylmethyl)-N-(1H-indol-3-yl)-3,3-dimethyl-2-oxoindolin-6-carboxamide] |  | 106
CC1(C)C(=O)N(Cc2cccc3ccoc23)c2cc(C(=O)Nc3c[nH]c4cc(F)c(F)cc34)ccc21 [Example I-127, 1-(benzofuran-7-ylmethyl)-N-(5,6-difluoro-1H-indol-3-yl)-3,3-dimethyl-2-oxoindolin-6-carboxamide] |  | 291
CC1(C)C(=O)N(Cc2ccccc2)c2cc(C(=O)Nc3c[nH]c4ccccc34)sc21 [Example I-87, 4-benzyl-N-(1H-indol-3-yl)-6,6-dimethyl-5-oxo-5,6-dihydro-4H-thieno[3,2-b]pyrrol-2-carboxamide] |  | 149
